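Test compounds were applied to cells in 96-well plates for 48 hours at 5 doses. GI50 = concentration required for 50% inhibition of growth.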 Active and inactive are the calls of the source. No stated cut-off is given here; in the data, active = GI50 up to about 1.1 µM and inactive = higher.
Tests used:
Assay in all cases: NCI-60 cell line screen, 48 h
HT-29 = test system: HT-29
BT-549 = test system: BT-549
Malme-3M = test system: Malme-3M
NCI-H226 = test system: NCI-H226
NCI-H460 = test system: NCI-H460
IGROV-1 = test system: IGROV-1
MDA-N = test system: MDA-N
786-0 = test system: 786-0
CAKI-1 = test system: CAKI-1
SF-268 = test system: SF-268
DU-145 = test system: DU-145
RXF 393 = test system: RXF 393
MDA-MB-231 = test system: MDA-MB-231
SNB-19 = test system: SNB-19
TK-10 = test system: TK-10
SN12C = test system: SN12C
SK-MEL-28 = test system: SK-MEL-28
HCT-15 = test system: HCT-15
CCRF-CEM = test system: CCRF-CEM
UACC-257 = test system: UACC-257
UACC-62 = test system: UACC-62
OVCAR-8 = test system: OVCAR-8
T47D = test system: T47D
A549 = test system: A549
ACHN = test system: ACHN
SK-MEL-5 = test system: SK-MEL-5
HCT-116 = test system: HCT-116
MOLT-4 = test system: MOLT-4
KM12 = test system: KM12
HOP-92 = test system: HOP-92
NCI-H23 = test system: NCI-H23
OVCAR-3 = test system: OVCAR-3
M14 = test system: M14
U-251 = test system: U-251
MDA-MB-435 = test system: MDA-MB-435
SW-620 = test system: SW-620
OVCAR-5 = test system: OVCAR-5
NCI/ADR-RES = test system: NCI/ADR-RES
A498 = test system: A498
SK-MEL-2 = test system: SK-MEL-2
SR = test system: SR
EKVX = test system: EKVX
UO-31 = test system: UO-31
SF-295 = test system: SF-295
RPMI-8226 = test system: RPMI-8226
HL-60 = test system: HL-60
OVCAR-4 = test system: OVCAR-4
PC-3 = test system: PC-3
NCI-H522 = test system: NCI-H522
LOX IMVI = test system: LOX IMVI
Hs-578T = test system: Hs-578T
HOP-62 = test system: HOP-62
K562 = test system: K562
SNB-75 = test system: SNB-75
SK-OV-3 = test system: SK-OV-3
COLO 205 = test system: COLO 205
HCC 2998 = test system: HCC 2998

For `C[N+]1(CCCC[N+]2(C)CCCCCCC2)CCCCCCC1`, the GI50 (HT-29) was > 100 µM (inactive), the GI50 (BT-549) was > 100 µM (inactive) and the GI50 (Malme-3M) was > 100 µM (inactive). The GI50 (NCI-H226) was > 100 µM (inactive), the GI50 (NCI-H460) was > 100 µM (inactive) and the GI50 (IGROV-1) was > 100 µM (inactive). The GI50 (MDA-N) was > 100 µM (inactive), the GI50 (786-0) was > 100 µM (inactive) and the GI50 (CAKI-1) was > 100 µM (inactive). The GI50 (SF-268) was > 100 µM (inactive), the GI50 (DU-145) was > 100 µM (inactive) and the GI50 (RXF 393) was > 100 µM (inactive). The GI50 (MDA-MB-231) was > 100 µM (inactive), the GI50 (SNB-19) was > 100 µM (inactive) and the GI50 (TK-10) was > 100 µM (inactive). The GI50 (SN12C) was > 100 µM (inactive), the GI50 (SK-MEL-28) was > 100 µM (inactive) and the GI50 (HCT-15) was > 100 µM. For the same molecule, the GI50 (CCRF-CEM) was > 100 µM (inactive), the GI50 (UACC-257) was > 100 µM (inactive) and the GI50 (UACC-62) was > 100 µM (inactive). The GI50 (OVCAR-8) was > 100 µM (inactive), the GI50 (T47D) was > 100 µM (inactive) and the GI50 (A549) was > 100 µM (inactive). For the same molecule, the GI50 (ACHN) was > 100 µM (inactive), the GI50 (SK-MEL-5) was > 100 µM (inactive) and the GI50 (HCT-116) was > 100 µM (inactive). The GI50 (MOLT-4) was > 100 µM (inactive), the GI50 (KM12) was > 100 µM (inactive) and the GI50 (HOP-92) was 77.1 µM (inactive). The GI50 (NCI-H23) was > 100 µM (inactive), the GI50 (OVCAR-3) was > 100 µM (inactive) and the GI50 (M14) was > 100 µM (inactive). For the same molecule, the GI50 (U-251) was > 100 µM (inactive), the GI50 (MDA-MB-435) was > 100 µM (inactive) and the GI50 (SW-620) was > 100 µM (inactive). For the same molecule, the GI50 (OVCAR-5) was > 100 µM (inactive), the GI50 (NCI/ADR-RES) was > 100 µM (inactive) and the GI50 (A498) was > 100 µM (inactive). The GI50 (SK-MEL-2) was > 100 µM (inactive), the GI50 (SR) was > 100 µM (inactive) and the GI50 (EKVX) was > 100 µM (inactive). For the same molecule, the GI50 (UO-31) was > 100 µM (inactive), the GI50 (SF-295) was > 100 µM (inactive) and the GI50 (RPMI-8226) was > 100 µM (inactive). For the same molecule, the GI50 (HL-60) was > 100 µM (inactive), the GI50 (OVCAR-4) was > 100 µM (inactive) and the GI50 (PC-3) was > 100 µM (inactive). For the same molecule, the GI50 (NCI-H522) was > 100 µM (inactive), the GI50 (LOX IMVI) was > 100 µM (inactive) and the GI50 (Hs-578T) was 0.227 µM (active). The GI50 (HOP-62) was > 100 µM (inactive) and the GI50 (K562) was > 100 µM (inactive).
For `CC(C)(C)OC(=O)NC1CCCC1C(O)(C1=CCCC1)C1=CCCC1` (configuration not stated), the GI50 (HT-29) was 76.2 µM (inactive), the GI50 (BT-549) was > 100 µM (inactive) and the GI50 (NCI-H226) was > 100 µM (inactive). For the same molecule, the GI50 (NCI-H460) was > 100 µM (inactive), the GI50 (IGROV-1) was > 100 µM (inactive) and the GI50 (MDA-N) was > 100 µM (inactive). For the same molecule, the GI50 (786-0) was > 100 µM (inactive), the GI50 (SF-268) was > 100 µM (inactive) and the GI50 (DU-145) was > 100 µM (inactive). The GI50 (RXF 393) was > 100 µM (inactive), the GI50 (MDA-MB-231) was 43.2 µM (inactive) and the GI50 (SNB-19) was > 100 µM (inactive). For the same molecule, the GI50 (SN12C) was > 100 µM (inactive), the GI50 (SK-MEL-28) was > 100 µM (inactive) and the GI50 (HCT-15) was > 100 µM. The GI50 (CCRF-CEM) was > 100 µM (inactive), the GI50 (UACC-257) was > 100 µM (inactive) and the GI50 (UACC-62) was 51.9 µM (inactive). For the same molecule, the GI50 (OVCAR-8) was > 100 µM (inactive), the GI50 (T47D) was 25.6 µM (inactive) and the GI50 (A549) was > 100 µM (inactive). For the same molecule, the GI50 (ACHN) was > 100 µM (inactive), the GI50 (SK-MEL-5) was > 100 µM (inactive) and the GI50 (HCT-116) was > 100 µM (inactive). For the same molecule, the GI50 (MOLT-4) was > 100 µM (inactive), the GI50 (SNB-75) was 48.1 µM (inactive) and the GI50 (KM12) was > 100 µM (inactive). For the same molecule, the GI50 (SK-OV-3) was > 100 µM (inactive), the GI50 (HOP-92) was > 100 µM (inactive) and the GI50 (NCI-H23) was > 100 µM (inactive). The GI50 (OVCAR-3) was > 100 µM (inactive), the GI50 (M14) was > 100 µM (inactive) and the GI50 (U-251) was > 100 µM (inactive). The GI50 (MDA-MB-435) was > 100 µM (inactive), the GI50 (SW-620) was > 100 µM (inactive) and the GI50 (OVCAR-5) was > 100 µM (inactive). For the same molecule, the GI50 (NCI/ADR-RES) was > 100 µM (inactive), the GI50 (A498) was > 100 µM (inactive) and the GI50 (SK-MEL-2) was > 100 µM (inactive). For the same molecule, the GI50 (SR) was > 100 µM (inactive), the GI50 (RPMI-8226) was > 100 µM (inactive) and the GI50 (HL-60) was > 100 µM (inactive). The GI50 (OVCAR-4) was 67.6 µM (inactive), the GI50 (PC-3) was > 100 µM (inactive) and the GI50 (LOX IMVI) was > 100 µM (inactive). The GI50 (COLO 205) was > 100 µM (inactive), the GI50 (Hs-578T) was > 100 µM (inactive) and the GI50 (HOP-62) was > 100 µM (inactive). For the same molecule, the GI50 (HCC 2998) was > 100 µM (inactive).

Reference: ChEMBL document CHEMBL1201862, “PubChem BioAssay data set” (2004)
